Data: PubChem BioAssay AID652002 (Sanford-Burnham Center for Chemical Genomics, 2013)
Active and inactive are the calls of the source. The rule behind the calls is not given here.

Key:
NB7+Caspase-8 = assay: compound enhancement of TRAIL-induced cell killing – NB7 cells plus caspase-8, luminescence, panel, dose response (AID 652002); conditions: NB7 neuroblastoma +caspase-8, TRAIL sensitization, luminescence viability, with TRAIL
[1] = as above; conditions: NB7 neuroblastoma +caspase-8, no TRAIL, compound-alone cytotoxicity counter-screen, luminescence viability, NB7+Caspase-8
[2] = molecular target: Tumor necrosis factor receptor superfamily member 10B (Homo sapiens) (UniProt O14763); assay: as above; conditions: NB7 neuroblastoma +caspase-8, TRAIL sensitization, luminescence viability; NB7+Caspase-8; with TRAIL, mean of runs
Chain of Tumor necrosis factor receptor superfamily member 10B (Homo sapiens) (O14763 whole entry, looked up): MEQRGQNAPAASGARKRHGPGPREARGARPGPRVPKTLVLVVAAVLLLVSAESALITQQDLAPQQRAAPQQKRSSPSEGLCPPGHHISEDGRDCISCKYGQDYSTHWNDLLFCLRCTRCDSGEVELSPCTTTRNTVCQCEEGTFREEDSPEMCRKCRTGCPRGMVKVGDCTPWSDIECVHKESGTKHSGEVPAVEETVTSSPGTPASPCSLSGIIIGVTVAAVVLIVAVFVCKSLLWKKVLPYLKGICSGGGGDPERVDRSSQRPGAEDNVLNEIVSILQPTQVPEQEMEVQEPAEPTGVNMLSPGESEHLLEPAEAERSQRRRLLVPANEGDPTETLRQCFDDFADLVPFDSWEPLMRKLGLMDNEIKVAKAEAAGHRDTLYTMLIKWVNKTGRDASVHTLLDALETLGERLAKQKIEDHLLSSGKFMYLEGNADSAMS

[3] = run 1, single replicate panel EC50
[4] = run 2, single replicate panel EC50

Compound | EC50 (NB7+Caspase-8; [3]) | EC50 (NB7+Caspase-8; [4]) | EC50 ([1]; mean of runs) | EC50 [1, 3] | EC50 [1, 4] | EC50 [2]
CC1(Cc2ccc(OC(F)(F)F)cc2)C(=O)Nc2ccc(S(=O)(=O)NC3CCCCC3)cc21 (stereo not given) | > 12.5 µM | > 12.5 µM | inactive | > 12.5 µM | 12.3 µM | > 12.5 µM (inactive)
Cc1cc2nc(-c3ccc(SCC(=O)Nc4nccs4)nc3)[nH]c2cc1C | 5.16 µM | > 12.5 µM | > 12.5 µM (inactive) | > 12.5 µM | > 12.5 µM | inactive
COc1ccccc1/C=C/C=N/n1c(-c2cc(-c3ccccc3)n[nH]2)n[nH]c1=S | > 12.5 µM | > 12.5 µM | > 12.5 µM (inactive) | > 12.5 µM | > 12.5 µM | > 12.5 µM (inactive)
CSc1ccc(/C=C/c2ccc3cccc(O)c3n2)cc1 | > 12.5 µM | 6.31 µM | inactive | 7.93 µM | > 12.5 µM | inactive
Cc1cc(NC(=O)c2cncc(Br)c2)ccc1NC(=O)c1cc2ccccc2o1 | > 12.5 µM | 9.86 µM | > 12.5 µM (inactive) | > 12.5 µM | > 12.5 µM | inactive
O=C(NC1=NCCS1)c1cc2ccccc2o1 | 5.35 µM | 10.4 µM | inactive | > 12.5 µM | 4.22 µM | inactive
COc1ccc(OCC(=O)N/N=C/C=C/c2ccccc2)cc1 | > 12.5 µM | 1.96 µM | inactive | 10.3 µM | > 12.5 µM | inactive
Cc1ccc2c(c1)-c1nc3ccccc3cc1C2=NC1CCCCC1 | > 12.5 µM | 7.45 µM | > 12.5 µM (inactive) | > 12.5 µM | > 12.5 µM | inactive
CC(C)C[C@H](NC(=O)c1nc[nH]c1C(=O)N[C@@H](CC(C)C)C(=O)OCc1ccccc1)C(=O)OCc1ccccc1 | > 12.5 µM | > 12.5 µM | > 12.5 µM (inactive) | > 12.5 µM | > 12.5 µM | > 12.5 µM (inactive)
O=C(c1cnc(Cl)c(Cl)c1)N1CCN(S(=O)(=O)c2ccc3ccccc3c2)CC1 | > 12.5 µM | > 12.5 µM | > 12.5 µM (inactive) | > 12.5 µM | > 12.5 µM | > 12.5 µM (inactive)
Cc1nc(Cl)c2oc3ccccc3c2n1 | > 12.5 µM | > 12.5 µM | > 12.5 µM (inactive) | > 12.5 µM | > 12.5 µM | > 12.5 µM (inactive)
Fc1ccc(-c2cnn3c(-c4ccncc4)ccnc23)cc1 | > 12.5 µM | > 12.5 µM | > 12.5 µM (inactive) | > 12.5 µM | > 12.5 µM | > 12.5 µM (inactive)
COc1ccc(-c2nnc(SCC(=O)c3[nH]c(C)c(C(C)=O)c3C)o2)cc1 | > 12.5 µM | > 12.5 µM | > 12.5 µM (inactive) | > 12.5 µM | > 12.5 µM | > 12.5 µM (inactive)
CCOc1ccc(NC(=O)Nc2cccs2)cc1 | > 12.5 µM | 6.86 µM | inactive | 10.7 µM | 6.47 µM | inactive
Cc1ccnc(NC(=O)Nc2ccc3c(c2)OCO3)c1 | > 12.5 µM | > 12.5 µM | > 12.5 µM (inactive) | > 12.5 µM | > 12.5 µM | > 12.5 µM (inactive)
Cn1c(=O)c2c(SCC(=O)Nc3ccccc3F)nc(C3CC3)nc2n(C)c1=O | > 12.5 µM | > 12.5 µM | > 12.5 µM (inactive) | > 12.5 µM | > 12.5 µM | > 12.5 µM (inactive)
CC(C)CCn1cnc2c([nH]c3cccc(Cl)c32)c1=O | > 12.5 µM | > 12.5 µM | > 12.5 µM (inactive) | > 12.5 µM | > 12.5 µM | > 12.5 µM (inactive)
O=C(Nc1cnc2ccccn2c1=O)c1ccc(Cl)cc1Cl | > 12.5 µM | > 12.5 µM | > 12.5 µM (inactive) | > 12.5 µM | > 12.5 µM | > 12.5 µM (inactive)
CCCCCCCn1c2c(c(=N)c3ccccc31)CCC2 | > 12.5 µM | 4.65 µM | > 12.5 µM (inactive) | > 12.5 µM | > 12.5 µM | inactive
CCOC(=O)c1sc(NC(=O)Nc2ccc(F)cc2)nc1C | > 12.5 µM | > 12.5 µM | > 12.5 µM (inactive) | > 12.5 µM | > 12.5 µM | > 12.5 µM (inactive)
